Results taken from US20180172683A1, “METHODS FOR ANALYZING THE INTERACTION BETWEEN A TARGET PROTEIN AND A LIGAND” (UNIVERSITY OF SOUTHERN CALIFORNIA, priority 2015, published 2018).
Peptide text beside a SMILES is read from it. * marks the point of attachment. Biotin = O=C1N[C@H]2[C@H](CS[C@H]2CCCCC(=O)*)N1

Columns and labels:
[1] = target: T1, Bcl-xL (Homo sapiens, UniProt Q07817); assay: Equilibrium immunoassays (ELISA and AMMP data combined), Kd of ligands for Bcl-xL; format: binding
T1 construct: The gene for the first 209 amino acids of Bcl-xL; made in house; host or cells: E. coli BL21(DE3), pET24a vector
Procedure: Sample Preparation. A set of serially diluted Bcl-xL standards, at 2× the desired concentration, were made in sample buffer. For each ligand to be tested (such as peptide ligands), a set of dilutions at 2× the desired concentration was also prepared. The Bcl-xL samples were either mixed 1:1 with sample buffer (standards) or ligands (samples), and allowed to incubate at room temperature for 6 days. After the incubation, the standards and samples were analyzed using ELISA or the ViBE BioAnalyzer (FIG. 1).
ELISA Assays. ELISA plates were incubated overnight at 4° C. with 1.5 nmol of streptavidin (for D1 or Bcl-xL capture ligands) or 54H6 mAb in 1×PBS. Plates were washed 3× with wash buffer (1×PBS+0.1% (v/v) Tween-20) and blocked with 1×PBS+5% (w/v) BSA for two hours. For the D1 or Bcl-xL capture ligands, 100 μL of a 30 nM solution of the reagents was added to wells and incubated for 1 hour. This step was skipped for the 54H6 mAb capture ligand (already immobilized on the plate). After the capture ligand incubation, 100 μL of sample or standards were added in each well, and incubated for 1 hour at room temperature. Plates were washed, incubated with HRP-conjugated probe antibody (such as anti-HIS tag antibody) in sample buffer for 1 hour, washed, and incubated with TMB substrate (Thermo Scientific). Reactions were stopped after approximately 10 minutes with 2 M sulfuric acid, and the absorbance at 450 nm was measured via a plate reader (Molecular Devices). The ligand of interest, capture ligand, target protein, and probe ligand used in example ELISA assays performed are highlighted in the table below.
AMMP Assays. For the AMMP assays, 90 μL of each sample or standards was incubated with 30 μL of magnetic beads (12 μg of beads/mL) and fluorescein-labeled antibody (8 nM) in sample buffer for 1 hour. The experiment's run buffer was 1×PBS+1% (v/v) Tween-20+1% (v/v) heat-treated FBS (Invitrogen; FBS was heat treated for 15 minutes at 65° C. and filtered). BioScale Universal Detection Cartridges were used in performing all of the assays. The device was used per the manufacturer's instructions. The ligand of interest, capture ligand, target protein, and probe ligand used in example AMMP assays performed are highlighted in the table below.
Monovalent and Divalent Analysis. The data for both sets of target concentrations were simultaneously fit for Kd (in the Kd only fit) or Kd and Mo. The data was fitted to the equilibrium model using the lowest absolute deviation method, by varying either only Kd or both Kd and [L]0 simultaneously. The monovalent assay fitting was done by Excel Solver (GRG Non-Lin method) using a set of five initial values. The set of values which provided the lowest error after the fitting were chosen as the final values. For the divalent assays, the fitting was performed by MATLAB's fminsearch function and a set of 10 initial values for Kd1, Kd2, and [L]0. […] For the divalent reverse assay, an extra parameter, Cf, was also determined by fitting (FIG. 7 Reverse Assay).
Enzymatic Kd Calculation Assay. The Kd values of ligands of interest were determined using a protocol modified from Friguet et al., Journal of immunological methods, 77, 305-319 (1985). The samples were prepared and analyzed by ELISA assay in a similar process as described above. The OD450 for the standards and their concentration values were fit to a four parameter logistic curve (standard curve). The concentration of the free Bcl-xL in solution (responsible for the signal) for each sample was calculated using the standard curve, and converted into percent of Bcl-xL bound by ligand in solution.

[2] = target: T1, Bcl-xL; assay: Radiolabeled off-rate assay on immobilized Bcl-xL; format: binding
From the text: Radiolabeled Off-Rate Assay. The DNA sequences coding for the peptides were ordered from Integrated DNA Technologies (IDT). Each DNA construct contained a T7 RNA Polymerase promoter, and a 5′ deletion mutant of the Tobacco Mosaic Virus (ΔTMV). The C-terminal portion of the peptides were elongated with a flexible serine-glycine linker (six amino acids long) and an HA tag. After gel purification using urea-PAGE, the DNA sequences were PCR amplified using Taq polymerase and in vitro transcribed into mRNA using T7 RNA polymerase. After transcription, the mRNA was urea-PAGE purified and resuspended in deionized water to a final concentration of 30 μM.
The samples were in vitro translated at 30° C. for 1 hour in the translation solution—150 mM KOAc, 750 μM MgCl2, 2 μM mRNA, 1× translation mix (20 mM Hepes-KOH pH 7.6, 100 mM creatine phosphate, 2 mM DTT, and 312.5 μM of each amino acid excluding methionine), ^35S-labeled methionine (Perkin Elmer; 20 μCi for each 25 μL of translation), and 60% (v/v) rabbit reticulocyte lysate. Radiolabeled peptides were purified using magnetic HA beads (Life Technologies) and eluted with 100 μL, 50 mM NaOH, then immediately neutralized with 20 μL of 1 M Tris-HCl, pH 8.0.
The radiolabeled peptides were allowed to bind to 30 pmol immobilized Bcl-xL for 1 hour in sample buffer (1×PBS, 1% (w/v) BSA, 0.1% (v/v) Tween 20, 10 μM biotin). The beads were magnetically separated, and washed 5× with sample buffer. The beads were resuspended in 1 mL of sample buffer containing 3 μM non-biotinylated Bcl-xL (˜100× molar excess relative to immobilized biotinylated Bcl-xL). At various time points, 100 μL of slurry was removed and the beads were magnetically separated and washed. The percent remaining at each time point was determined by dividing the counts per minute (cpm) on beads by total cpm (beads+washes). The peptide off-rate was determined by an exponential fit of the Percent counts on beads vs. Time (s).
The peptide ligands were made using a C-terminal HA tag, and affinity purified.

[3] = target: streptavidin (Streptomyces avidinii, UniProt P22629); conditions: literature reference value, Piran et al. 1990; cited from earlier work
[4] = target: T1, Bcl-xL; assay: High-throughput sequencing kinetic (HTSK) on- and off-rates of mRNA-peptide fusions; format: binding
Procedure: Preparing the pools of fusion ligands. The DNAs for the final enriched pools from the extension and the doped selection against Bcl-xL were generated. The DNA pools were PCR amplified using Taq polymerase and in vitro transcribed into mRNA using T7 RNA polymerase (Liu et al., Methods Enzymol. 318, 268-293 (2000)). After transcription, the mRNA was urea-PAGE purified and resuspended in deionized water to a final concentration of 30 μM. The mRNA was then ligated to fluorescein-F30P (phosphate-dA21-[dT-fluor]-[C9]3-dAdCdCP; where [dT-fluor] is fluorescein dT (Glen Research), [C9] is spacer 9 (Glen Research), and P is puromycin (Glen Research); synthesized at the Keck Oligo Facility at Yale) using T4 DNA ligase (Takahashi et al., Methods Mol. Biol. 535, 293-314 (2009)). The ligation was performed using a splint complementary to the 3′ end of the RNA and the 5′ end of the DNA-linker. The ligated mRNA was urea-PAGE purified and resuspended in deionized water to final concentration of 30 μM. The samples were in vitro translated in the translation solution-150 mM KOAc, 750 μM MgCl2, 2 μM mRNA, in 1× translation mix (20 mM Hepes-KOH pH 7.6, 100 mM creatine phosphate, 2 mM DTT, and 312.5 μM of each amino acid) and 60% (v/v) rabbit reticulocyte lysate. To prepare radiolabeled peptides or proteins, non-labeled methionine was substituted with ^35S-labeled methionine (Perkin Elmer; 20 μCi for each 25 μL of translation). The translation reactions were incubated at 30° C. for one hour. To form mRNA-protein fusions, KCl and MgCl2 were added to the reaction to final concentrations of 250 mM and 30 mM respectively after translation, and the samples were frozen at −20° C.
To purify the fusion molecules, 100 μL of dT cellulose (25% (v/v) slurry, GE Healthcare) in isolation buffer (100 mM Tris-HCl pH 8.0, 1 M NaCl, 0.2% (v/v) Triton X-100) was added and incubated for 1 hour. The beads were washed five times with 700 μL of isolation buffer, and the fusions were eluted with 3×80 μL of 65° C. water and desalted through Centrisep columns (Princeton Separations). The desalted fusions were adjusted to 1×RT buffer (50 mM Tris-HCl pH 8.3, 75 mM KCl, 3 mM MgCl2, […], […],) and the sample was heated to 65° C. for 5 minutes and cooled on ice to anneal the 3′ primer. After cooling, […] of Superscript II enzyme was added and the reaction incubated at 42° C. for one hour. […]
On- and off-rate experiments. […] The radiolabeled samples were washed 3×, and the beads were counted via a scintillation counter.
To obtain the HTSK off-rates, after the kinetic on-rate experiment, the remaining beads were washed 5× with selection buffer. […] The radiolabeled samples were washed and counted via a scintillation counter. […]

T1 sequence (Q07817 1-209 limits assumed): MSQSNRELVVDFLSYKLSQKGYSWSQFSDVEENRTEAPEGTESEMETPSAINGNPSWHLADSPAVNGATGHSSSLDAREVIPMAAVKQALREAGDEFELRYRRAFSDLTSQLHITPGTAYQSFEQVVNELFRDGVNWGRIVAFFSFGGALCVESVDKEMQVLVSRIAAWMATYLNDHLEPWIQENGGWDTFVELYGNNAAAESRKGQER
Chain of streptavidin (P22629 25-183, species assumed): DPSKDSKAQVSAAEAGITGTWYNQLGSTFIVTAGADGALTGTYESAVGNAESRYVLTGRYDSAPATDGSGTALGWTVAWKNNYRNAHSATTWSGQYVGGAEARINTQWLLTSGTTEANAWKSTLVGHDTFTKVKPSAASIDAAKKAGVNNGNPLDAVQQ

CC[C@H](C)[C@H](NC(=O)[C@@H](NC(=O)[C@@H](NC(=O)[C@@H](NC(=O)[C@H](CCC(=O)O)NC(=O)[C@@H](NC(=O)[C@@H](N)CCSC)[C@@H](C)CC)[C@@H](C)O)[C@@H](C)CC)[C@@H](C)O)C(=O)N[C@@H](Cc1ccc(O)cc1)C(=O)N[C@@H](CCCCN)C(=O)N[C@@H](Cc1ccc(O)cc1)C(=O)N[C@@H](CCCCN)C(=O)N[C@@H](CCCCN)C(=O)N[C@@H](C)C(=O)N[C@@H](C)C(=O)N[C@@H](CC(=O)O)C(=O)N[C@@H](Cc1c[nH]cn1)C(=O)N[C@@H](Cc1ccccc1)C(=O)N[C@@H](CO)C(=O)N[C@@H](CCSC)C(=O)N[C@@H](CO)C(=O)N[C@@H](CCSC)C(=O)NCC(=O)N[C@@H](CO)C(=O)N[C@@H](CCCCNC(=O)CCCC[C@@H]1SC[C@@H]2NC(=O)N[C@@H]21)C(N)=O [E2] (H-MIETITIYKYKKAADHFSMSMGSK(Biotin)-NH2)
kon [1]: 53000 M⁻¹ s⁻¹ | Kd ([1]; Kd, equilibrium ELISA/AMMP assays (Table 1 values)): 300 pM | Ratio of Fit [L]0 to Known [L]0 ([1]; simultaneous fit of Kd and [L]0, mean ± standard error): 96% ± 40% | koff ([2]; radiolabeled peptide-mRNA fusions bound to immobilized Bcl-xL, read-out: koff): 1.6e-05 s⁻¹

O=C(O)CCCC[C@@H]1SC[C@@H]2NC(=O)N[C@@H]21 [biotin]
slowest reported off-rate of biotin and streptavidin [3]: 2.4×10^−6

MIDTNVILNYKKAADHFSITMGSK [D79]
Peptide koff ([2]; in vitro translated radiolabeled peptides with C-terminal HA tag): 5.9e-07 s⁻¹ | koff value ([2]; radiolabeled peptide, unit not given): 5.9×10^−7 | Kd ([4]; from HTSK on- and off-rates): 2.4 pM | HTSK koff ([4]; mRNA-peptide fusions, next-generation sequencing): 3.3e-07 s⁻¹
